In ChEMBL document CHEMBL2311284, “A novel series of N-(azetidin-3-yl)-2-(heteroarylamino)acetamide CCR2 antagonists” (Bioorg Med Chem Lett, 2013):

How the values were obtained:
[1] = Clearance in rat at 2 mg/kg, iv and 10 mg/kg, po; conditions: in vivo
[2] = Volume of distribution at steady state in rat at 2 mg/kg, iv and 10 mg/kg, po; conditions: in vivo, read-out: Vdss
[3] = AUClast in rat at 2 mg/kg, iv and 10 mg/kg, po; conditions: plasma
[4] = Oral bioavailability in rat at 10 mg/kg; format: ADME, organism-based; conditions: in vivo

Question: With O=C(CNc1ncnc2ccc(C(F)(F)F)cc12)NC1CN([C@H]2CC[C@@](O)(c3cncs3)CC2)C1 as the molecule, how does the clearance [1] read?
Answer: Its clearance is 89 mL/min/kg.

Question: What about the Vd [2] of the same molecule?
Answer: The Vd was 8.5 L/kg.

Question: What about the AUC(0-t) [3] of the same molecule?
Answer: Its AUC(0-t) is 10.6 ng·h/mL.

Question: What about the bioavailability [4] of the same molecule?
Answer: Its bioavailability is 0.3%.

Question: Which results are given for N#Cc1cc(NCC(=O)NC2CN([C@H]3CC[C@@](O)(c4cncs4)CC3)C2)c2cc(C(F)(F)F)ccc2n1?
Answer: clearance [1]: 148 mL/min/kg; Vd [2]: 13 L/kg; AUC(0-t) [3]: 6 ng·h/mL; bioavailability [4]: 0.5%
